In general, EC50 refers to the midpoint of the concentration-response curve.

These results are taken from ChEMBL document CHEMBL6178009, “Targeted Degradation of BCL6 Using Novel Bifunctional Degraders: A New Therapeutic Strategy for BCL6-Positive Cancers” (ACS Med Chem Lett, 2025).

In assay [1] the target is Protein cereblon/B-cell lymphoma 6 protein (Homo sapiens) (UniProt Q96SW2+P41182). In words: PROTAC activity at CRBN/N-terminal HiBit-tagged BCL6 in human HT-1080 cells transfected with pLV-UBC-N-HiBiT- BCL6-PGK-puro assessed as degradation of BCL6 by measuring ratio of trough concentration of protein in cell compared to the concentration of protein before the cell contact with compound (Ymin) incubated for 5 hrs by luminescence based NANO-Glo HIBiT lytic detection assay relative to control. (In general: The HiBiT peptide binds its large partner to form an active luciferase.)

Assay [2] addresses Protein cereblon/B-cell lymphoma 6 protein (Homo sapiens, UniProt P41182+Q96SW2). In words: PROTAC activity at CRBN/N-terminal HiBit-tagged BCL6 in human HT-1080 cells transfected with pLV-UBC-N-HiBiT- BCL6-PGK-puro assessed as degradation of BCL6 incubated for 5 hrs by luminescence based NANO-Glo HIBiT lytic detection assay. It counts as cell-based.

For the compound `CNC(=O)COc1cc2cc(Nc3nc(N4CCN(CC5CCN(c6cccc7c(C8CCC(=O)NC8=O)nn(C)c67)CC5)CC4)ncc3Cl)cc3c2n(c1=O)CCO3` (configuration not stated), the Emin in assay [1] is below 30%. The EC50 in assay [2] is at most 25 nM.
Turning to `CNC(=O)COc1cc2cc(Nc3nc(N4CCN(CC5CCN(c6ccc7c(C8CCC(=O)NC8=O)nn(C)c7c6)CC5(F)F)C(C)C4)ncc3Cl)cnc2n(C(C)C)c1=O` (configuration not stated), the Emin in assay [1] was found to be 30%. Moreover, the EC50 in assay [2] was at most 25 nM.
On the same counts, the results for `CNC(=O)COc1cc2cc(Nc3nc(N4CCC5(CC4)CCN([C@H](C)C4CCN(c6ccc7c(C8CCC(=O)NC8=O)nn(C)c7c6)CC4)CC5)ncc3Cl)cnc2n(C)c1=O` (some centres not stated) are below 30% and at most 25 nM.
Turning to `CNC(=O)COc1cc2cc(Nc3nc(N4CC[C@@H](CN5CCN(c6cccc7c(C8CCC(=O)NC8=O)nn(C)c67)CC5)[C@@H](C)C4)ncc3Cl)cc3c2n(c1=O)CCO3` (some centres not stated), the Emin in assay [1] is below 30%. Besides, in assay [2], the EC50 was at most 25 nM.
As for `CNC(=O)COc1cc2cc(Nc3nc(N4CCC(CN5CCC(c6ccc7c(C8CCC(=O)NC8=O)nn(C)c7c6F)CC5)CC4)ncc3Cl)cc3c2n(c1=O)[C@@H](C)CO3` (some centres not stated), the Emin in assay [1] is below 30%. Further, the EC50 in assay [2] is at most 25 nM.
On the same counts, the results for `CNC(=O)COc1cc2cc(Nc3nc(N4CCC5(CCN(CC6CCN(c7cc8c(cc7F)c(C7CCC(=O)NC7=O)nn8C)CC6)CC5)CC4)ncc3Cl)cnc2n(C)c1=O` (configuration not stated) are below 30% and at most 25 nM.
